Laboratory results from PubChem BioAssay AID1259427 (Fisher Drug Discovery Resource Center, 2018).
The source made the active and inactive calls.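 Rule for the calls: active = EC50 at or below a set limit, with no effect in the paired counter-screen assay; inactive = the rest.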

target: Aedes aegypti neuropeptide Y-like receptor 7 (NPYLR7); test: agonists of mosquito NPYLR7 receptor, confirmation, cell-based, Aedes aegypti, hit validation, mosquito biting behavior (AID 1259427); details: HEK293T NPYLR7/Galpha15/GCaMP6s, calcium fluorescence;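 note: potency of agonists that activate the receptor and raise the calcium signal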

Structure (SMILES) | EC50
COc1cc(C=C2SC(=S)NC2=O)cc(Br)c1O | inactive
CCN1C(=Cc2cc(C)[n+](C3CCCCC3)c(C)c2)Sc2ccccc21 | > 20 µM (inactive)
CC(C)(C)c1cnc(CSc2cnc(NC(=O)C3CCNCC3)s2)o1 | 14.9 µM
CCC1CN(C(=O)c2cc(C(C)C)on2)CCC(=O)N1Cc1ccccc1 (stereo not given) | > 20 µM (inactive)
CC1CC2(C)Oc3ccccc3C3OCC1(CO)C(C)C32 (stereo not given) | > 20 µM (inactive)
C=CCN1C(=O)C(Cc2ccc(OC)cc2)S/C1=N/N=C\c1cccs1 (stereo not given) | > 20 µM (inactive)
CN(C)c1ccc(/C=C2/SC(=S)N(CC(=O)O)C2=O)cc1Br | inactive
COc1ccc2nc(C=Cc3cc(Br)c(O)c(OC)c3)sc2c1 | > 20 µM (inactive)
COc1ccc(OC)c(CCNc2nc3cnc(-c4ccc(Cl)cc4)cc3n2C)c1 | 19.5 µM
COc1cc(/C=C2\SC(=S)N(c3cccc(C(=O)O)c3)C2=O)ccc1O | > 20 µM (inactive)
Cc1ccc(NC2C=CS(=O)(=O)C2)cc1C (stereo not given) | > 20 µM (inactive)
COc1cc(C(=O)N2CCOC(c3ccccc3)C2)cc(OC)c1C (stereo not given) | > 20 µM (inactive)
CCC(CO)[n+]1c(C)cc(C=C2Sc3ccccc3N2Cc2ccccc2)cc1C (stereo not given) | 9.8 µM
Cc1ccc(N2C(=O)NC(=O)/C(=C\c3cccs3)C2=O)cc1 | > 20 µM (inactive)
CCCCCn1c(=O)c2c(nc3n2CCN3c2cc(C)cc(C)c2)n(C)c1=O | > 20 µM (inactive)
N#CC1C(=N)Oc2cc(N)ccc2C1c1c(Cl)cccc1Cl (stereo not given) | > 20 µM (inactive)
CC[n+]1c(/C=C/C=C2/N(C)c3ccccc3C2(C)C)sc2ccccc21 | > 20 µM (inactive)
NS(=O)(=O)c1ccc(NC(NC(=O)c2ccco2)C(=O)c2ccc(Cl)cc2)cc1 (stereo not given) | > 20 µM (inactive)
CCOc1cc2c(cc1C=C(C#N)C#N)OC(C)C2 (stereo not given) | > 20 µM (inactive)
CNC(=O)c1cnc(/C=C/c2csc(-c3ccsc3)n2)[nH]c1=O | > 20 µM (inactive)
N#CC(C#N)=C1C=C2C=C(N3CCCCC3)CCC2CC1 (stereo not given) | < 0.039 µM (inactive)
O=C(O)CCN1C(=O)/C(=C/c2ccc(O)cc2)SC1=S | inactive
O=C(O)CN1C(=O)/C(=C/c2cc(Br)c(O)c(Br)c2)SC1=S | inactive
Nc1ccc2c3c(cccc13)C(=O)NC2=O | inactive
Cc1[nH]c(/C=C2\C(=O)Nc3ccccc32)c(C)c1CCC(=O)O | < 0.039 µM (inactive)

Structure (SMILES) | EC50
C=CCN1C=CC(=CC=C(C#N)C#N)C=C1 | inactive
Cc1cc(O)c(CN2CCCCC2)c2c1C(=O)/C(=C/c1cc3ccccc3o1)O2 | > 20 µM (inactive)
Cn1c(/C(C#N)=C/c2ccc(N3CCOCC3)o2)nc2ccccc21 | 14.9 µM
COc1ccccc1OCCCOc1ccc(Br)cc1Cl | > 20 µM (inactive)
COc1ccc2c(C)nc(N=C(N)N)nc2c1 | 19.6 µM
N#CC(C#N)=C1C=C2C=C(N3CCN(Cc4ccccc4)CC3)CCC2CC1 (stereo not given) | > 20 µM (inactive)
CCn1c(O)c(C=Nc2c(C#N)c(C)c(C)n2C2CCCCC2)c(=O)n(CC)c1=S | inactive
CN(Cc1ccccc1)C1=CC2=CC(=C(C#N)C#N)CCC2CC1 (stereo not given) | 5.13 µM
CCOc1cc(/C=C2\C(=N)N3N=CSC3=NC2=O)cc(Br)c1OC(=O)c1ccccc1 | inactive
N#C/C(=C\c1ccc(O)c(O)c1)C(=O)NCCCc1ccccc1 | 17.4 µM
Cc1nc2ncccc2cc1C(=O)N1CCC2(CCNC(=O)CC2)CC1 | > 20 µM (inactive)
CCCn1c2c(c(=O)n(C)c1=O)C(=O)C(=Cc1ccc(N(C)C)cc1)N2 | inactive
CCN1CCc2c(sc(NC(=O)c3ccccc3)c2-c2nc3ccccc3s2)C1 | > 20 µM (inactive)
C[C@@H](NC(=O)CN1Cc2ccc(N3CCOCC3)nc2C1=O)c1ccccc1 | > 20 µM (inactive)
O=C(CSc1cn(CC(=O)N2CCCCCC2)c2ccccc12)NC1CCCC1 | > 20 µM (inactive)
CCCC[n+]1c(C)cc(C=C2Sc3ccccc3N2C)cc1C | > 20 µM (inactive)
CC(C)NCC(O)c1ccc(O)c(O)c1 (stereo not given) | > 20 µM (inactive)
C(=Cc1ccccc1)C=NNc1ncnc2ccccc12 | > 20 µM (inactive)
O=C(O)CSc1ccc2c3c(cccc13)C(=O)c1ccccc1-2 | inactive
CCN1C(=Cc2ccc3cc(C)ccc3[n+]2CC)Sc2ccccc21 | inactive
CC(=O)Nc1nc(COC(=O)c2[nH]c(C)c(C(=O)OC(C)C)c2C)cs1 | > 20 µM (inactive)
COc1ccc(N2C(=O)/C(=C\c3ccc[nH]3)N(C)C2=S)c([N+](=O)[O-])c1 | > 20 µM (inactive)
CSc1nc(N)c2ncn([C@@H]3O[C@H](COP(=O)(O)OP(=O)(O)OP(=O)(O)O)[C@H](O)C3O)c2n1 (stereo not given in full) | inactive
FC(F)(F)c1ccc(-c2nc3ccc(Cl)cn3c2NCc2ccccc2)cc1 | > 20 µM (inactive)
COc1ccccc1Oc1nc2ccccn2c(=O)c1/C=C(\C#N)c1nc2ccccc2s1 | > 20 µM (inactive)

Structure (SMILES) | EC50
CCOC(=O)N1CCC(NC(=O)c2sc3nc4c(c(C(F)(F)F)c3c2N)CC(C)CC4)CC1 (stereo not given) | > 20 µM (inactive)
Cc1cccc(C2=N/C(=C\c3cc4cc5c6c(c4oc3=O)CCCN6CCC5)C(=O)O2)c1 | inactive
Cc1cc(O)c(CN2CCN(C)CC2)c2c1C(=O)/C(=C/c1cccs1)O2 | > 20 µM (inactive)
COc1ccc(C(=O)C=Cc2cc(OC)c(O)c(OC)c2)cc1F | > 20 µM (inactive)
CCCCN(C)C1=CC2=CC(=C(C#N)C#N)CCC2CC1 (stereo not given) | < 0.039 µM (inactive)
CCCCC(CC)CN=C(N)NC(N)=NCCCCCCN=C(N)NC(N)=NCC(CC)CCCC (stereo not given) | 17.3 µM
O=C1CSC(=S)N1N=Cc1cc(Br)c(O)c(Br)c1 | inactive
COc1cc(OC)c(OC)cc1/C=C1/SC(=S)N(CC(=O)O)C1=O | inactive
COC(=O)C(C)Sc1nc2sc3c(c2c(=O)n1C)CCC3 (stereo not given) | > 20 µM (inactive)
O=[N+]([O-])c1ccc(-n2nc3ccc4nonc4c3n2)cc1 | > 20 µM (inactive)
N#CC(C#N)=C1C=C2C=C(N3CCc4ccccc4C3)CCC2CC1 (stereo not given) | > 20 µM (inactive)
O=C1NC(=NS(=O)(=O)c2ccccc2)SC1=Cc1cc([N+](=O)[O-])ccc1O | > 20 µM (inactive)
C=CCNc1ccc2c3c(cccc13)C(=O)N(c1ccccc1)C2=O | inactive
CSc1nnc2c(n1)OC(c1ccc(OC(=O)c3ccc(Br)cc3)cc1)Nc1ccccc1-2 (stereo not given) | > 20 µM (inactive)
CCn1c(=O)c2c(nc(/C=C/c3ccc(OC)c(OC)c3)n2C)n(CC)c1=O | > 20 µM (inactive)
O=C1c2ccccc2-c2nn(CN3CCN(c4ccccc4)CC3)c3cccc1c23 | > 20 µM (inactive)
Cc1cc(C=C2Sc3ccccc3N2C)cc(C)[n+]1-c1ccccc1 | inactive
Oc1ccc(-c2onc3ccc(Cl)cc23)cc1 | > 20 µM (inactive)
COc1cc(-c2nc3n(n2)C(c2ccc(O)cc2)C(C(N)=O)=C(C)N3)cc(OC)c1OC (stereo not given) | > 20 µM (inactive)
COc1ccc(NC(=O)C2C=CCN2)cc1NC(=O)c1ccco1 (stereo not given) | > 20 µM (inactive)
C=C(C)Cn1c(C(=O)N2CCN(C(=O)CCC(=O)OCC)C(C)C2)cc2ccoc21 (stereo not given) | 6.05 µM
NC(=S)N/N=c1\oc2cc(O)ccc2cc1-c1nc2ccccc2[nH]1 | inactive
CN1C(=CC=C2C(=O)Oc3ccccc3C2=O)C(C)(C)c2ccccc21 | inactive
N#Cc1cccc(C(=O)N2CCN(C(c3ccccc3)c3ccc(Br)cc3)CC2)c1 (stereo not given) | > 20 µM (inactive)
O=C1NC(=O)C2=Cc3ccc(O)cc3OC2(O)N1 (stereo not given) | inactive

Structure (SMILES) | EC50
Nc1ncnc2c1ncn2[C@@H]1O[C@H](CO)[C@@H](O)[C@H]1O | inactive
CCOC(=O)c1c(-c2ccccc2)csc1N=Cc1nc(-c2ccco2)oc1O | > 20 µM (inactive)
O=C(C1=NN(c2ccccc2)C2C(=O)N(c3ccccc3)C(=O)C12)c1ccccc1 (stereo not given) | > 20 µM (inactive)
COCCCN(Cc1ccc(C(C)(C)C)cc1)Cc1cccn1Cc1cccc(C)c1 | > 20 µM (inactive)
CCOCCCN1C(=O)C(=Cc2ccccc2O)NC1=S | inactive
Cc1nc(Sc2nnc3ccccn23)c2c3c(sc2n1)CCCC3 | > 20 µM (inactive)
CCOc1ccc(C(=O)Nc2sc3c(c2-c2nc4ccccc4s2)CCN(C)C3)cc1 | > 20 µM (inactive)
FC(F)(F)c1cc(-c2cccs2)nc2ncnn12 | > 20 µM (inactive)
O=C1OC(c2ccc(Cl)c([N+](=O)[O-])c2)=N/C1=C\c1cc2cc3c4c(c2oc1=O)CCCN4CCC3 | < 0.039 µM (inactive)
COc1ccc(C(=O)N(Cc2ccccc2)C2CCC(NC(=O)C3CCN(C(=O)c4ccccc4Cl)CC3)CC2)cc1 (stereo not given) | 18 µM
CCOc1cc(/C=C2\SC(=S)N(NC(=O)c3ccccc3O)C2=O)ccc1O | > 20 µM (inactive)
CCN1CCN(C2=CC3=CC(=C(C#N)C#N)CCC3CC2)CC1 (stereo not given) | < 0.039 µM (inactive)
CCN(CC)c1ccc2cc(C(N)=O)/c(=N\NC(N)=S)oc2c1 | < 0.039 µM (inactive)
Clc1cccc2ccc(CN3CCn4cncc4C3)nc12 | > 20 µM (inactive)
CCOC(=O)N1CCN(c2ccc(/C=C(\C#N)c3nc4ccccc4[nH]3)o2)CC1 | > 20 µM (inactive)
CCOC(=O)c1cc(O)c(C(=O)OCC)s1 | > 20 µM (inactive)
CC(C)c1nc(NC(=O)c2[nH]ncc2Br)n(C)n1 | inactive
CN=c1nc(-c2ccccc2)n(-c2ccccc2)s1 | 19.9 µM
COc1ccccc1N=c1oc2cc(O)ccc2cc1-c1nc2ccccc2[nH]1 | inactive
CN1C(=S)N(c2ccc3c(c2)CCC3)C(=O)/C1=C\c1ccncc1 | > 20 µM (inactive)
CCC(C)n1cc(/C=C2/C(=O)NC(=O)N(c3ccc4c(c3)OCO4)C2=O)c2ccccc21 (stereo not given) | > 20 µM (inactive)
COCCn1c(C)cn2c3c(=O)n(Cc4ccc(Cl)cc4)c(=O)n(C)c3nc12 | > 20 µM (inactive)
O=C1C(=Cc2ccccc2O)NC(=S)N1Cc1ccco1 | inactive
O=C(O)c1[nH]ncc1CN1CCc2onc(-c3ccc(C(F)(F)F)cc3)c2C1 | > 20 µM (inactive)
O=c1nc2sc3[nH]c(=O)sc3cc-2s1 | < 0.039 µM (inactive)
